According to PMC8119466, “A screen of FDA-approved drugs identifies inhibitors of protein tyrosine phosphatase 4A3 (PTP4A3 or PRL-3)” (Scientific Reports, 2021):
Counter-ions that a name gives are not always drawn. Like-named read-outs stand apart in the source and are kept apart here. Residues, ends and D or L forms follow the SMILES beside them.

What was measured:
Assay type in all cases: biochemical
[1] = target: T1, recombinant PRL-1 (Homo sapiens, UniProt Q93096); assay: In vitro phosphatase assay (DiFMUP hydrolysis), PRL-1; note: test concentration or dose not given here
T1 construct: 6xHis (N, cleaved yes); made in house; host or cells: E. coli One Shot BL21 Star
T1 sequence (Q93096 1-173): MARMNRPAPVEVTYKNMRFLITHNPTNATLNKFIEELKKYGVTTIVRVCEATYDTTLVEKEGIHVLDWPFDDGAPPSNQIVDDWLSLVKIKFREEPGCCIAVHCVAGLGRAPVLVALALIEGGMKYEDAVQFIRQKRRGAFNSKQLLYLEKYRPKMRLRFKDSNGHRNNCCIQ

[2] = target: T2, recombinant PRL-3 (Homo sapiens, UniProt O75365); assay: In vitro phosphatase assay (DiFMUP hydrolysis), PRL-3; note: test concentration or dose not given here
T2 construct: 6xHis (N, cleaved yes); made in house; host or cells: E. coli One Shot BL21 Star
T2 sequence (O75365 whole entry): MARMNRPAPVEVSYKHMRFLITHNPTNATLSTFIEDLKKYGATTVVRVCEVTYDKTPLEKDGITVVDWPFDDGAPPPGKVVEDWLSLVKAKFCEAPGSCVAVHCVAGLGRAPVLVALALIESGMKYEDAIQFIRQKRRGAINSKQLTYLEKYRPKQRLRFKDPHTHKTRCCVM

[3] = target: T3, recombinant PRL-2 (Homo sapiens, UniProt Q12974); assay: In vitro phosphatase assay (DiFMUP hydrolysis), PRL-2;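 note: PRL-2 activity read as DiFMUP hydrolysis after 20 min at room temperature with drug, enzyme first pre-reduced at 4 °C for 20 min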
T3 construct: 6xHis (N, cleaved yes); made in house; host or cells: E. coli One Shot BL21 Star
T3 sequence (Q12974 1-167): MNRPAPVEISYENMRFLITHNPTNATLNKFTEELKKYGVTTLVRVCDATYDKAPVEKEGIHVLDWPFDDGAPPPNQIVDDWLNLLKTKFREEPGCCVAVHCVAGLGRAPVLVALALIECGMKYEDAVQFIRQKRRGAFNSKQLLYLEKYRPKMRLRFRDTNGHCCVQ

[4] = FDA-approved drug screen, compared to DMSO

Compound	% Phosphatase Activity (compared to DMSO) PRL-1 [1, 4]	% Phosphatase Activity (compared to DMSO) PRL-3 [2, 4]	% Phosphatase Activity (compared to DMSO) PRL-2 [3, 4]	% Phosphatase Activity (compared to DMSO) PRL-1 [1]	% Phosphatase Activity (compared to DMSO) PRL-3 [2]	% Phosphatase Activity (compared to DMSO) PRL-2 [3]
NC(=O)C[S@@+]([O-])C(c1ccccc1)c1ccccc1 [Armodafinil]	94%	73%	90%			
CO[C@H]1O[C@@H]2O[C@@]3(C)CC[C@H]4[C@H](C)CC[C@@H]([C@H]1C)[C@@]24OO3 [Artemether]	87%	85%	96%			
C[C@@H]1CC[C@H]2[C@@H](C)C(=O)O[C@@H]3O[C@@]4(C)CC[C@@H]1[C@]32OO4 [Artemisinin]	100%	80%	90%			
CCCNC(C)C(=O)Nc1c(C)csc1C(=O)OC (stereo not drawn) [Articaine HCl]	110%	84%	109%			
CN1CC2c3ccccc3Oc3ccc(Cl)cc3C2C1 (stereo not drawn) [Asenapine]	98%	79%	107%			
COC(=O)[C@H](Cc1ccccc1)NC(=O)[C@@H](N)CC(=O)O [Aspartame] (H-Asp-Phe-OMe)	92%	85%	95%			
CC(=O)Oc1ccccc1C(=O)O [Aspirin]	126%	102%	110%			
COC(=O)N[C@H](C(=O)N[C@@H](Cc1ccccc1)[C@@H](O)CN(Cc1ccc(-c2ccccn2)cc1)NC(=O)[C@@H](NC(=O)OC)C(C)(C)C)C(C)(C)C.O=S(=O)(O)O [Atazanavir Sulfate]	95%	83%	83%			
COC(=O)N[C@H](C(=O)N[C@@H](Cc1ccccc1)[C@@H](O)CN(Cc1ccc(-c2ccccn2)cc1)NC(=O)[C@@H](NC(=O)OC)C(C)(C)C)C(C)(C)C [Atazanavir]	94%	85%	89%			
CCC1(c2cnc[nH]2)Cc2ccccc2C1.Cl [Atipamezole hydrochloride]	98%	88%	106%			
CCC1(c2cnc[nH]2)Cc2ccccc2C1 [Atipamezole]	94%	87%	109%			
CNCC[C@@H](Oc1ccccc1C)c1ccccc1 [Atomoxetine HCl]	98%	89%	109%			
CC(C)c1c(C(=O)Nc2ccccc2)c(-c2ccccc2)c(-c2ccc(F)cc2)n1CC[C@@H](O)C[C@@H](O)CC(=O)O [Atorvastatin Calcium]	100%	74%	87%			
O=C1C(O)=C([C@H]2CC[C@H](c3ccc(Cl)cc3)CC2)C(=O)c2ccccc21 [Atovaquone]	96%	90%	88%			
COc1ccc(CC2c3cc(OC)c(OC)cc3CC[N+]2(C)CCC(=O)OCCCCCOC(=O)CC[N+]2(C)CCc3cc(OC)c(OC)cc3C2Cc2ccc(OC)c(OC)c2)cc1OC (stereo not drawn) [Atracurium Besylate]	99%	101%	101%			
NC(=O)[C@@H](CCC(F)(F)F)N(Cc1ccc(-c2ncon2)cc1F)S(=O)(=O)c1ccc(Cl)cc1 [Avagacestat (BMS-708163)]	89%	73%	85%			
COc1ccc(CN=c2[nH]c(N3CCC[C@H]3CO)ncc2C(=O)NCc2ncccn2)cc1Cl [Avanafil]	98%	97%	112%			
COc1ccc(C(=O)CC(=O)c2ccc(C(C)(C)C)cc2)cc1 [Avobenzone]	93%	87%	68%			
CNC(=O)c1ccccc1Sc1ccc2c(/C=C/c3ccccn3)n[nH]c2c1 [Axitinib]	102%	96%	164%			

Compound	% Phosphatase Activity (compared to DMSO) PRL-1 [1, 4]	% Phosphatase Activity (compared to DMSO) PRL-3 [2, 4]	% Phosphatase Activity (compared to DMSO) PRL-2 [3, 4]	% Phosphatase Activity (compared to DMSO) PRL-1 [1]	% Phosphatase Activity (compared to DMSO) PRL-3 [2]	% Phosphatase Activity (compared to DMSO) PRL-2 [3]
Nc1ncn([C@@H]2O[C@H](CO)[C@@H](O)[C@H]2O)c(=O)n1 [Azacitidine]	78%	89%	93%			
OC(c1ccccc1)(c1ccccc1)C1CCNCC1 [Azacyclonol]	109%	96%	127%			
O=C(CCCN1CCN(c2ccccn2)CC1)c1ccc(F)cc1 [Azaperone]	96%	88%	96%			
CN1CCC(=C2c3ccccc3CCc3cccnc32)CC1 [Azatadine dimaleate]	103%	84%	108%			
Cn1cnc([N+](=O)[O-])c1Sc1ncnc2nc[nH]c12 [Azathioprine]				96%	74%	107%
O=C(O)CCCCCCCC(=O)O [Azelaic acid]	94%	95%	98%			
CN1CCCC(n2nc(Cc3ccc(Cl)cc3)c3ccccc3c2=O)CC1 (stereo not drawn) [Azelastine HCl]	121%	87%	113%			
CC1=C(C(=O)OC(C)C)C(c2cccc([N+](=O)[O-])c2)C(C(=O)OC2CN(C(c3ccccc3)c3ccccc3)C2)=C(N)N1 (stereo not drawn) [Azelnidipine]	93%	95%	99%			
CCOc1nc2cccc(C(=O)OCc3oc(=O)oc3C)c2n1Cc1ccc(-c2ccccc2-c2noc(=O)[nH]2)cc1 [Azilsartan Medoxomil]	91%	90%	96%			
CCOc1nc2cccc(C(=O)O)c2n1Cc1ccc(-c2ccccc2-c2nc(=O)o[nH]2)cc1 [Azilsartan]	111%	101%	130%			
CC[C@H]1OC(=O)[C@H](C)[C@@H](O[C@H]2C[C@@](C)(OC)[C@@H](O)[C@H](C)O2)[C@H](C)[C@@H](O[C@@H]2O[C@H](C)C[C@H](N(C)C)[C@H]2O)[C@](C)(O)C[C@@H](C)CN(C)[C@H](C)[C@@H](O)[C@]1(C)O [Azithromycin Dihydrate]	98%	73%	99%			
CC[C@H]1OC(=O)[C@H](C)[C@@H](O[C@H]2C[C@@](C)(OC)[C@@H](O)[C@H](C)O2)[C@H](C)[C@@H](O[C@@H]2O[C@H](C)C[C@H](N(C)C)[C@H]2O)[C@](C)(O)C[C@@H](C)CN(C)[C@H](C)[C@@H](O)[C@]1(C)O [Azithromycin]	94%	101%	94%			
CC1(C)S[C@@H]2[C@H](NC(=O)[C@H](NC(=O)N3CCNC3=O)c3ccccc3)C(=O)N2[C@H]1C(=O)O [Azlocillin sodium salt]	100%	85%	112%			
C[C@H]1[C@H](NC(=O)/C(=N\OC(C)(C)C(=O)O)c2csc(N)n2)C(=O)N1S(=O)(=O)O [Aztreonam]	97%	76%	88%			
CCc1cc(/C(C)=N/OCc2ccc(C3CCCCC3)c(C(F)(F)F)c2)ccc1CN1CC(C(=O)O)C1 [BAF312 (Siponimod)]	99%	101%	87%			
Cc1ccc(-n2nc(C(C)(C)C)cc2NC(=O)Nc2ccc(OCCN3CCOCC3)c3ccccc23)cc1 [BIRB 796 (Doramapimod)]	108%	98%	106%			
Cc1nc(NC(=O)N2CCC[C@H]2C(N)=O)sc1-c1ccnc(C(C)(C)C(F)(F)F)c1 [BYL719]	89%	90%	96%			
Cc1ccc(NC(=O)c2ccc(CN3CC[C@H](N(C)C)C3)c(C(F)(F)F)c2)cc1Nc1nccc(-c2cncnc2)n1 [Bafetinib (INNO-406)]	97%	76%	105%			
